Measured values taken from US12097252B2, “Formulation of a peptide vaccine” (priority 2016, dated 2024).
Marks after values point to notes of the source that are not given here.

Key:
[1] = system: RAHYNIVTF-specific CD8^+ T cells; experiment: Strength of T cell response in blood, D^b-[…] tetramer flow cytometry; format: in vivo, C57BL/6 mice; conditions: for % Tm+ of CD8: emulsified 1:1 with Montanide ISA VG51, s.c.; for % CD62L+ KLRG1+ (% of TM+ CD8 T cells) / % CD62L− KLRG1+ (% of TM+ CD8 T cells): Montanide 1:1
Method: On day 9 after vaccination, blood was drawn from the tail vein of all mice. Blood samples were transferred to a 96-wells culture plate and centrifuged for 5 minutes at 1600 rpm. Erythrocytes were lysed by suspending blood cell pellets in Lysis buffer until orange coloration was observed. Subsequently, cells were washed in FACS buffer and stained with the fluorescent antibodies, the D^b-[…]-APC tetramer and 7-AAD mentioned in the Materials section above. After 30 minutes of incubation on ice, cells were washed and analyzed on a BD LSRII flow cytometer in the Leiden University Medical Center (Dept. of Rheumatology).
A study by Van Duikeren et al. (J Immunol, 2012; 189(7): 3397-403) aimed to identify parameters that correlated with the induction of an effective antitumor response. By identifying such biomarkers, different vaccine compositions can be tested in non-tumor bearing mice with prognostic value in tumor models. The authors found a correlation between the expression of KLRG1 and absence of CD62L expression on the one hand and effective antitumor immune responses on the other hand. We determined the percentages of KLRG1- and CD62L-expressing D^b-[…]^+ CD8^+ T cells in the blood of vaccinated mice on day 9 after vaccination using flow cytometry. No difference in percentage of […]-specific KLRG1^+ CD62L^− CD8^+ T cells is observed between groups 3 and 4. Not enough […]-specific CD8+ T cells were detected to reliably study the expression of KLRG1 and CD62L in the groups of mice vaccinated with vehicle only (Group 1 and 2). See Table 10 for the average percentages and standard deviations per group.

[2] = system: TC-1 tumor cells, expressing the oncogenic E6 and E7 proteins of HPV16; experiment: Therapeutic vaccination of mice carrying TC-1 tumors; format: in vivo, C57BL/6 mice
Method: The following groups of mice were included in the study: • Group 1: (n=5) 40% v/v DMSO/WFI emulsified 1:1 with Montanide ISA VG51. • Group 2: (n=5) Reconstitution composition (750 μL 0.1M Citric acid in water, 62.5 μL Propylene Glycol, 125 μL Ethanol and 62.5 μL Cremophor EL per mL) emulsified 1:1 with Montanide ISA VG51. • Group 3: (n=10) SLP […] and 20 μg CpG ODN1826/mouse dissolved in 40% v/v DMSO/WFI, emulsified 1:1 with Montanide ISA VG51. • Group 4: (n=10) SLP […] (SEQ ID NO: 6) and 20 μg CpG ODN1826/mouse dissolved in Reconstitution composition (750 μL 0.1M Citric acid in water, 62.5 μL Propylene Glycol, 125 μL Ethanol and 62.5 μL Cremophor EL per mL), emulsified 1:1 with Montanide ISA VG51.
For mice in Group 1, a solution was prepared by admixing and subsequently swirling 400 μL DMSO and 600 μL WFI. The solution was taken up in a 2 mL Luer-Lock syringe (Syringe A). In another 2 mL Luer-Lock syringe (Syringe B) 1 mL of Montanide ISA VG51 was taken up, after which both syringes were connected to a T-connector. An emulsion was generated by mixing the contents back and forth extensively. After mixing, the syringes were disconnected and a 25 G needle was placed on the syringe containing the emulsion. Per mouse, 100 μL was injected in the left flank subcutaneously.
The vaccine prepared for Group 2 was prepared in an identical manner, only differing by the use of reconstitution composition (750 μL 0.1M citric acid in water and 250 μL PG/EtOH/Cremophor EL 1:2:1, i.e. 0.075M citric acid, 6.25% v/v propylene glycol CAS no. 57-55-6, 12.5% v/v ethanol and 6.25% v/v polyoxyethyleneglyceroltriricinoleate 35 CAS no. 61791-12-6 in water) instead of DMSO and WFI. […]
TC-1 tumor cells, expressing the oncogenic E6 and E7 proteins of HPV16 were cultured in complete IMDM culture medium, supplemented with 400 μg/ml geneticin. […] The tumor size of all mice was monitored at least twice a week using a caliper up to 75 days after tumor challenge.

[3] = Group 3 average: SLP SEQ ID NO: 6 + CpG ODN1826 in 40% v/v DMSO/WFI, blood day 9 after vaccination
[4] = Group 4 average: SLP SEQ ID NO: 6 + CpG ODN1826 in Reconstitution composition, blood day 9 after vaccination

For “GQAEPDRAHYNIVTFCCKCDSTLRLCVQSTHVDIR [SLP 6]”, which “% Tm+ of CD8” value ([1]; Group 3 average: SLP SEQ ID NO: 6 + 20 μg CpG ODN1826/mouse in 40% v/v DMSO/WFI, blood day 9 after vaccination) is on record?
The value was 1.4%.

What about the “% CD62L+ KLRG1+ (% of TM+ CD8 T cells)” value [1, 3] of the same sequence?
Its value is 4.0%.

And the “% CD62L− KLRG1+ (% of TM+ CD8 T cells)” value [1, 3]?
The value was 51.9%.

And the “% Tm+ of CD8” value ([1]; Group 4 average: SLP SEQ ID NO: 6 + 20 μg CpG ODN1826/mouse in Reconstitution composition (0.1M citric acid/PG/EtOH/Cremophor EL), blood day 9, p < 0.05 vs group 3)?
Its value is 4.8* %.

And the “% CD62L+ KLRG1+ (% of TM+ CD8 T cells)” value [1, 4]?
Its value is 4.0%.

What about the “% CD62L− KLRG1+ (% of TM+ CD8 T cells)” value [1, 4] of the same sequence?
Its value is 52.2%.

What about the “percentage of induced D^b-RAYNIVTF (tetramer) positive CD8^+ T cells” value ([1]; group 4 (Rec. composition+SLP) vs group 3 (DMSO+SLP), p=0.022) of the same sequence?
Its value is “enhanced tetramer-positive CD8^+ T cell response”.

And the “outgrowth of TC-1 tumors” value ([2]; SLP 6 and CpG1826 in DMSO/WFI or Reconstitution composition, Montanide emulsion, s.c. day 8, monitored up to 75 days)?
The value was “Tumor regression is observed in all mice”.

What about the “overall tumor outgrowth, comparison of formulations” value ([2]; SLP 6 dissolved in DMSO/WFI vs Reconstitution composition) of the same sequence?
The value was “No differences were observed in overall tumor outgrowth”.

And the Kaplan-Meier survival ([2]; SLP-vaccinated groups: DMSO/WFI vs Reconstitution composition)?
The Kaplan-Meier survival was “no differences between the vaccinated groups”.
